In ChEMBL document CHEMBL5360622, “Leucettinibs, a Class of DYRK/CLK Kinase Inhibitors Inspired by the Marine Sponge Natural Product Leucettamine B” (J Med Chem, 2023):

Key:
[1] = biological target: T1, Dual specificity tyrosine-phosphorylation-regulated kinase 4 (Homo sapiens, UniProt Q9NR20)
T1 sequence (Q9NR20 whole entry): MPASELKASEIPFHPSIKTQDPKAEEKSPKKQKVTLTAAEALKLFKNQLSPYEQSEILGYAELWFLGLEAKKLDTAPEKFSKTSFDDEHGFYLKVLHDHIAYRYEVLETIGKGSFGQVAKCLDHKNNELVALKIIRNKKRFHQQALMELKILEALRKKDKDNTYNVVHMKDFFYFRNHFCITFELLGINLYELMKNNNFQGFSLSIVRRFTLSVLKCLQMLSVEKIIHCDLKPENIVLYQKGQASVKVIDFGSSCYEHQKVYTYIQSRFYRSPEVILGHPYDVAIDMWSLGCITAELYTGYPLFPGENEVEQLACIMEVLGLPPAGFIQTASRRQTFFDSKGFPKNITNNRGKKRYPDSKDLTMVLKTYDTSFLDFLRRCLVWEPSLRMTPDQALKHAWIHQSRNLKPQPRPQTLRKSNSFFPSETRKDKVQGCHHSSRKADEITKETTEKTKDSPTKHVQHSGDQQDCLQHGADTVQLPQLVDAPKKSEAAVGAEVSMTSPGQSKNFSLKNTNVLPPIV

[2] = biological target: Dual specificity protein kinase CLK1 (Homo sapiens, UniProt P49759); type: cell-based, Sf9
Sequence of Dual specificity protein kinase CLK1 (P49759 whole entry): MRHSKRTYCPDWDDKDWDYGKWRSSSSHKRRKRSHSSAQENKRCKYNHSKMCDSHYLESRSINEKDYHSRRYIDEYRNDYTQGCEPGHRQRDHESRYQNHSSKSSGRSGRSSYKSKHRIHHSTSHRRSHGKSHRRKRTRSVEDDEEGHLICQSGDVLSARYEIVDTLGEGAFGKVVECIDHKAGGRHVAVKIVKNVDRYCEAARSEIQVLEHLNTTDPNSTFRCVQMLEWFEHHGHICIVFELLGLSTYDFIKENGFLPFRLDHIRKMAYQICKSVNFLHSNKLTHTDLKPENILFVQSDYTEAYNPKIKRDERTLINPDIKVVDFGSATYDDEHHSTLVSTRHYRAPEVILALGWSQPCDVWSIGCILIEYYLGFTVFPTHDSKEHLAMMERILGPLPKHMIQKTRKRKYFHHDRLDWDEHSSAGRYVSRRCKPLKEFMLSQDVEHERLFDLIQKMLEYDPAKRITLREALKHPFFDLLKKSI

[3] = biological target: T2, Dual specificity tyrosine-phosphorylation-regulated kinase 3 (Homo sapiens, UniProt O43781)
T2 sequence (O43781 whole entry): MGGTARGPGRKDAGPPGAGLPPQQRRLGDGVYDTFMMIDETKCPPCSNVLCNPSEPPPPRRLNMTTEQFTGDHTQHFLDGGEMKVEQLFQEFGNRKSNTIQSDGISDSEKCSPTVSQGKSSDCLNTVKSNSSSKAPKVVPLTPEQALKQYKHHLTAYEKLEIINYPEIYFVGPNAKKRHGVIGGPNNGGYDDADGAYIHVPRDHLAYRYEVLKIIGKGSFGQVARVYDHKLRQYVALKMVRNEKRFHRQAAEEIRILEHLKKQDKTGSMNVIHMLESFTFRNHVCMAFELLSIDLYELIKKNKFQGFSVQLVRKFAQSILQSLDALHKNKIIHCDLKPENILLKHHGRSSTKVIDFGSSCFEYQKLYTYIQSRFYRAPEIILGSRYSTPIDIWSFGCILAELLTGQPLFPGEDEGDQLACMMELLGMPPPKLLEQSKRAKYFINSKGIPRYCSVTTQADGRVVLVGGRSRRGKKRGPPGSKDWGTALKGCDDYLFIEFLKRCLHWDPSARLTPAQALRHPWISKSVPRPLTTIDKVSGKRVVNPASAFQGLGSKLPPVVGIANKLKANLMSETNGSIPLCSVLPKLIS

[4] = biological target: Glycogen synthase kinase-3 beta (Homo sapiens, UniProt P49841); type: cell-based, Sf9
Sequence of Glycogen synthase kinase-3 beta (P49841 whole entry, canonical isoform): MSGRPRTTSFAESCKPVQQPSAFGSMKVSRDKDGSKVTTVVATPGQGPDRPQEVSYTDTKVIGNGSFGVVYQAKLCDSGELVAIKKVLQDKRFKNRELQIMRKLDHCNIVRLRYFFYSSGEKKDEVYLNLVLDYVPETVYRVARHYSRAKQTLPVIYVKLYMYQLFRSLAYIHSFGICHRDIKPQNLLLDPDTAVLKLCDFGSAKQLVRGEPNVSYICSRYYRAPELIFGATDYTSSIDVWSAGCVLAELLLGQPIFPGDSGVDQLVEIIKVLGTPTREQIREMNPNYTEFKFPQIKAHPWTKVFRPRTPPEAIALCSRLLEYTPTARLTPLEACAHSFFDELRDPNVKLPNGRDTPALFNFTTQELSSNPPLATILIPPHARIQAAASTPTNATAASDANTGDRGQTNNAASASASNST

[5] = biological target: Casein kinase I isoform epsilon (Homo sapiens, UniProt P49674)
Sequence of Casein kinase I isoform epsilon (P49674 whole entry, canonical isoform): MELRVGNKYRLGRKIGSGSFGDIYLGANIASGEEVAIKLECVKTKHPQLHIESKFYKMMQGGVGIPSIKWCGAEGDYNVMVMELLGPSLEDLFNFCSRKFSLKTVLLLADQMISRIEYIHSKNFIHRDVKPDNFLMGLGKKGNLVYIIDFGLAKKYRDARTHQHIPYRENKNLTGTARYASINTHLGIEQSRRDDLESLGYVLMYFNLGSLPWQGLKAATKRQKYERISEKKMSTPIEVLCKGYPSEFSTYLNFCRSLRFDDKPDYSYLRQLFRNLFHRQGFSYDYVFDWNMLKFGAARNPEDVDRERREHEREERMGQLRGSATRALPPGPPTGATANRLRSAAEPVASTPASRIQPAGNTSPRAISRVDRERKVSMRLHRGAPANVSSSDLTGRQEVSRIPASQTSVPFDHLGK

[6] = biological target: Dual specificity protein kinase CLK3 (Homo sapiens, UniProt P49761); type: cell-based, Sf9
Sequence of Dual specificity protein kinase CLK3 (P49761 whole entry): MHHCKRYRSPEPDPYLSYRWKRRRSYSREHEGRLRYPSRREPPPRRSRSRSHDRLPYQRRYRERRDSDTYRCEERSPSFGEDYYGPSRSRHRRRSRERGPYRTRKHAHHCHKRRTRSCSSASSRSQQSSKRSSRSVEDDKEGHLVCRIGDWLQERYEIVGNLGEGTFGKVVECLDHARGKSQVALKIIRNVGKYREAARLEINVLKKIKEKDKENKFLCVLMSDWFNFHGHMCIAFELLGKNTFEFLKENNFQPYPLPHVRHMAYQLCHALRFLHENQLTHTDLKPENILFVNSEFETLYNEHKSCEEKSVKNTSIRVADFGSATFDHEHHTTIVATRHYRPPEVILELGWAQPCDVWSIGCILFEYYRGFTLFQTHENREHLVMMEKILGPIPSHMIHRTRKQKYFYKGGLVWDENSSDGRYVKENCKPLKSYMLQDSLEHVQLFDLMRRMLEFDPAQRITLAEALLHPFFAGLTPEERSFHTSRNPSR

[7] = biological target: Dual specificity protein kinase CLK2 (Homo sapiens, UniProt P49760)
Sequence of Dual specificity protein kinase CLK2 (P49760 whole entry): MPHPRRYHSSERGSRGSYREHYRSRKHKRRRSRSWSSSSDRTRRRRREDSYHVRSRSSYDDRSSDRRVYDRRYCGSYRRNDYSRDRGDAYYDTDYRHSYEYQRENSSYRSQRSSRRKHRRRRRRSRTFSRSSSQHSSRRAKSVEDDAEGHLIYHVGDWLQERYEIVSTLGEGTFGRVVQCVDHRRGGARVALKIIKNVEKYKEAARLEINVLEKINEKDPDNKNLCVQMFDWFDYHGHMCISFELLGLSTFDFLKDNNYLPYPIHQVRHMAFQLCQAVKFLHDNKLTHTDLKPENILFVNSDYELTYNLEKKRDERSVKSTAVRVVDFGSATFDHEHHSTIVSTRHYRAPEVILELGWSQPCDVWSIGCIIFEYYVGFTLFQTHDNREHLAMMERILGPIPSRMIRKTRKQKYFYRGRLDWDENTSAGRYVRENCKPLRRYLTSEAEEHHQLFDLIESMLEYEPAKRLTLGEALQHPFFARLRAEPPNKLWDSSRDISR

[8] = biological target: T3, Dual specificity tyrosine-phosphorylation-regulated kinase 2 (Homo sapiens, UniProt Q92630)
T3 sequence (Q92630 whole entry): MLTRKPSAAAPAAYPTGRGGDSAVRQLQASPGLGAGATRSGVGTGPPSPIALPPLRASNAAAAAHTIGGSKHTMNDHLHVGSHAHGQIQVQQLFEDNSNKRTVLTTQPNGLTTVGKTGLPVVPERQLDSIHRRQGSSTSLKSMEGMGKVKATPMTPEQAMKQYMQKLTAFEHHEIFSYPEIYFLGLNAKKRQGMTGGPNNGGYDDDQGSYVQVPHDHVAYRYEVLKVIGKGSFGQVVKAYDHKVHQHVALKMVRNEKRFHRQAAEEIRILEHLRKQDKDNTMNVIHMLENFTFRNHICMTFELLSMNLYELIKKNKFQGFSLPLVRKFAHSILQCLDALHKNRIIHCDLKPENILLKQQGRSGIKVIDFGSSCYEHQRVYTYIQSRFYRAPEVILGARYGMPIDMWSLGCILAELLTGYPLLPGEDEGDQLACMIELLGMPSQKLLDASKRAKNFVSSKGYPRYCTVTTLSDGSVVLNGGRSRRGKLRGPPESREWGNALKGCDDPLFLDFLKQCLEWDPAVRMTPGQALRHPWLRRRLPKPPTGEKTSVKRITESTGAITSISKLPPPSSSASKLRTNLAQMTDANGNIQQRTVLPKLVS

[9] = biological target: Cyclin-dependent kinase 5/CDK5 activator 1 (Homo sapiens, UniProt Q00535); type: cell-based, Sf9
Sequence of Cyclin-dependent kinase 5/CDK5 activator 1 (Q00535 whole entry): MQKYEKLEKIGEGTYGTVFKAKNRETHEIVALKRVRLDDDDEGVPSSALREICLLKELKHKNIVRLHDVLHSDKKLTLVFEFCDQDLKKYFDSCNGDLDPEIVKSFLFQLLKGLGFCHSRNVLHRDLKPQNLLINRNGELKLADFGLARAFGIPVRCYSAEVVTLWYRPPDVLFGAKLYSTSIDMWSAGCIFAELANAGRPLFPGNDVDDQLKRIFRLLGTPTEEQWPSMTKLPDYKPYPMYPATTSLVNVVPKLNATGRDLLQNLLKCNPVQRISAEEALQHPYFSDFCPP
Sequence of Cyclin-dependent kinase 5/CDK5 activator 1 (Q15078 whole entry, further chain): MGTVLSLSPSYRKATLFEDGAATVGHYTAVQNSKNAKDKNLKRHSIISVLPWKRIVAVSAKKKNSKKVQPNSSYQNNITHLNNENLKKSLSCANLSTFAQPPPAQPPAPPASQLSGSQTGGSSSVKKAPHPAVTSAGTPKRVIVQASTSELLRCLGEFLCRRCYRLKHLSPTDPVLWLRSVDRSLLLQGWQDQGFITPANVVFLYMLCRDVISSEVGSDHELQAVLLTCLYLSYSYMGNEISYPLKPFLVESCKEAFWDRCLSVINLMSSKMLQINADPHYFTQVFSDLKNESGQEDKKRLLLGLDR

[10] = biological target: Dual specificity protein kinase CLK4 (Homo sapiens, UniProt Q9HAZ1)
Sequence of Dual specificity protein kinase CLK4 (Q9HAZ1 whole entry): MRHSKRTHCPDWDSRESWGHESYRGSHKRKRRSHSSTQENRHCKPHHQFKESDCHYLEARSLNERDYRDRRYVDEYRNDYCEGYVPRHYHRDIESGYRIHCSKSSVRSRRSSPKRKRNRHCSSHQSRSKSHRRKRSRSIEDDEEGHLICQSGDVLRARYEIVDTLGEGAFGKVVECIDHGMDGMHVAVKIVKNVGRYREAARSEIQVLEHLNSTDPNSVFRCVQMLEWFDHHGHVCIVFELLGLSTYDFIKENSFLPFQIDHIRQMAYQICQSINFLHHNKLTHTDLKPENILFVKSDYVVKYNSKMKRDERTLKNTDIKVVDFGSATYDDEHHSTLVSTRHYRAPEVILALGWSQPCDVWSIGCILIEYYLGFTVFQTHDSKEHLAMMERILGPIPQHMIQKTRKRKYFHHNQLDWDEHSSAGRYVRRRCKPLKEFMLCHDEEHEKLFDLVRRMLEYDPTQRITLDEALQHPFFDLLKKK

| Compound | IC50 [1] [nM] | IC50 [2] [nM] | IC50 [3] [nM] | IC50 [4] [nM] | IC50 [5] [nM] | IC50 [6] [nM] | IC50 [7] [nM] | IC50 [8] [nM] | IC50 [9] [nM] | IC50 [10] [nM] |
| --- | --- | --- | --- | --- | --- | --- | --- | --- | --- | --- |
| CC(C)C[C@@H](CF)NC1=N/C(=C\c2ccc3ncsc3c2)C(=O)N1 | 385 | 7 | 227 | 6290 | > 10000 | 1390 | 33 | 263 | > 10000 | – |
| C[C@@H]1CCCC[C@H]1NC1=N/C(=C\c2ccc3ncsc3c2)C(=O)N1 (racemic) | 538 | 17 | 531 | 8360 | > 10000 | 914 | 114 | 549 | > 10000 | – |
| O=C1NC(NC[C@@H](O)c2ccccc2)=N/C1=C\c1ccc2ncsc2c1 | 181 | 13 | – | 2600 | – | – | – | 16 | > 10000 | – |
| O=C1NC(NC2CCOCC2)=N/C1=C\c1ccc2ncsc2c1 | 1260 | 24 | 1670 | > 10000 | > 10000 | 1280 | – | – | > 10000 | – |
| O=C1NC(NC[C@H](O)c2ccccc2)=N/C1=C\c1ccc2ncsc2c1 | 4320 | 12 | – | > 10000 | – | – | – | 417 | > 10000 | – |
| CN1CC[C@](C)(NC2=N/C(=C\c3ccc4ncsc4c3)C(=O)N2)C1=O (stereo in doubt) | 1680 | 125 | 1480 | > 10000 | > 10000 | 927 | 450 | 1720 | > 10000 | – |
| COC(=O)[C@@H](Cc1ccccc1)NC1=N/C(=C\c2ccc3ncsc3c2)C(=O)N1 | 6820 | 122 | – | > 10000 | > 10000 | > 10000 | – | 8380 | > 10000 | – |
| COC(=O)[C@@H](NC1=N/C(=C\c2ccc3ncsc3c2)C(=O)N1)C(C)C | – | 16 | 560 | 8240 | > 10000 | 791 | – | 328 | > 10000 | – |
| CC(C)C[C@H](CO)NC1=N/C(=C\c2ccc3ncsc3c2)C(=O)N1 | 764 | 19 | 394 | 2520 | > 10000 | 484 | – | 953 | > 10000 | – |
| COC(=O)[C@H](Cc1ccccc1)NC1=N/C(=C\c2ccc3ncsc3c2)C(=O)N1 | 445 | 28 | – | > 10000 | > 10000 | 1850 | – | 216 | > 10000 | – |
| CN(C)CC(NC1=N/C(=C\c2ccc3ncsc3c2)C(=O)N1)c1ccccc1 (racemic) | 8730 | – | 1500 | 6770 | > 10000 | 4120 | 590 | > 10000 | > 10000 | 104 |
| COCC(Cc1ccccc1)NC1=N/C(=C\c2ccc3ncsc3c2)C(=O)N1 (stereo not given) | 374 | – | 2380 | 4250 | > 10000 | 808 | 99 | 400 | > 10000 | 12 |
| CC(C)(C)OC[C@H](NC1=N/C(=C\c2ccc3ncsc3c2)C(=O)N1)c1ccccc1 | – | 18 | – | 9970 | > 10000 | 2100 | 121 | 1720 | > 10000 | – |
| O=C1NC(Nc2ccc(N3CCOCC3)cc2)=N/C1=C\c1ccc2ncsc2c1 | > 10000 | – | > 10000 | > 10000 | > 10000 | > 10000 | > 10000 | > 10000 | > 10000 | 4930 |
| CC(C)C[C@@H](CO)NC1=N/C(=C\c2ccc3ncsc3c2)C(=O)N1 | 6490 | 49 | 745 | 9370 | > 10000 | 546 | – | 4980 | > 10000 | – |
